Assay [1] has as its system Plasmodium yoelii nigeriensis. As to the kind of experiment: Antimalarial activity against Plasmodium yoelii nigeriensis infected in Swiss mouse assessed as suppression of parasitemia at 96 mg/kg, po measured after 4 days relative to control. Format: functional. The settings on record: time 4 day.
For assay [2], the system named is Plasmodium yoelii nigeriensis. As to the kind of experiment: Antimalarial activity against Plasmodium yoelii nigeriensis infected in Swiss mouse assessed as suppression of parasitemia at 96 mg/kg, im measured after 4 days relative to control. The assay is classed as functional. The settings on record: time 4 day.
Assay [3] concerns Plasmodium yoelii nigeriensis. The assay can be described thus: Antimalarial activity against Plasmodium yoelii nigeriensis infected in Swiss mouse assessed as survival at 96 mg/kg, po measured after 4 days relative to control. The settings on record: time 4.0 day. The assay is classed as functional, organism-based.
The subject of assay [4] is Plasmodium yoelii nigeriensis. The assay can be described thus: Antimalarial activity against Plasmodium yoelii nigeriensis infected in Swiss mouse assessed as suppression of parasitemia at 24 mg/kg, im measured after 4 days relative to control. The assay is classed as functional. The settings on record: time 4 day.
Assay [5] deals with Plasmodium yoelii nigeriensis. The assay can be described thus: Antimalarial activity against Plasmodium yoelii nigeriensis infected in Swiss mouse assessed as suppression of parasitemia at 48 mg/kg, po measured after 4 days relative to control. The assay is classed as functional. The settings on record: time 4 day.
The subject of assay [6] is Plasmodium yoelii nigeriensis. The assay can be described thus: Antimalarial activity against Plasmodium yoelii nigeriensis infected in Swiss mouse assessed as suppression of parasitemia at 48 mg/kg, im measured after 4 days relative to control. The settings on record: time 4 day. The assay is classed as functional.
Assay [7] concerns Plasmodium yoelii nigeriensis. As to the kind of experiment: Antimalarial activity against Plasmodium yoelii nigeriensis infected in Swiss mouse assessed as survival at 48 mg/kg, im measured after 4 days relative to control. The assay is classed as functional, organism-based. The settings on record: time 4.0 day.
The test system of assay [8] is Plasmodium yoelii nigeriensis. As to the kind of experiment: Antimalarial activity against Plasmodium yoelii nigeriensis infected in Swiss mouse assessed as suppression of parasitemia at 24 mg/kg, po measured after 4 days relative to control. Format: functional. The settings on record: time 4 day.
Assay [9] relates to Plasmodium yoelii nigeriensis. The assay can be described thus: Antimalarial activity against Plasmodium yoelii nigeriensis infected in Swiss mouse assessed as survival at 48 mg/kg, po measured after 4 days relative to control. Format: functional, organism-based. The settings on record: time 4.0 day.

Active and inactive are the calls of the source. The rule behind the calls is not given here.

As to `C=C(c1ccc(OC(C)(C)CO)c2ccccc12)C1COC(C)(C)OO1` (stereo not given), the figures for the Activity in [1] and in [2] were 24.76% and 48.27%, respectively.
For `C=C(c1ccc(OCCO)c2ccccc12)C1COC2(CCCCC2)OO1` (stereo not given), the figures for the Activity in assay [1] and in assay [2] were 75.34% and 100%, respectively.
For the compound `C=C(c1ccc(OC(C)(C)CO)c2ccccc12)C1COC2(CCCC2)OO1` (stereo not given), the Activity in assay [1] and in assay [2] was 100% each time. Also, the result in assay [3] was Active.
Regarding `C=C(c1ccc(OC(C)(C)CO)c2ccccc12)C1COC2(CCCCC2)OO1` (stereo not given), the Activity in assay [1] and in assay [2] was 100% throughout. The result in assay [3] was Active.
In the case of `C=C(c1ccc(OCCO)c2ccccc12)C1COC(C)(C)OO1` (stereo not given), the figures for the Activity in assay [1] and in [2] were 22.89% and 40%, respectively.
Consider `C/C(=C/CO)C12OOC3(OC1CC(=O)c1ccccc12)C1CC2CC(C1)CC3C2` (stereo not given), for which the Activity in [1] is on record as 45.68%; in assay [2], 35.89%.
Consider `C=C(c1ccc(O[Si](C)(C)C(C)(C)C)c2ccccc12)C1COC(C)(C)OO1` (stereo not given), for which the Activity in assay [1] was 14.7%.
Still for that read-out and setting: in the case of `C=C(c1ccc(O[Si](C)(C)C(C)(C)C)c2ccccc12)C1COC2(CCCC2)OO1` (stereo not given) it was 27.71%.
On to `C[C@@H]1CC[C@H]2[C@@H](C)C(=O)O[C@@H]3O[C@@]4(C)CC[C@@H]1[C@]32OO4` [ARTEMISININ], for which the Activity in assay [4], in [5] and in [6] was 100% in each case. In addition, in assay [7], the outcome was Active.
For `C=C(c1ccc(OCCO)c2ccccc12)C1COC2(CCCC2)OO1` (stereo not given), the Activity was found to be 57.23% in assay [1] and 100% in [2].
The matching figures for `C/C(=C/CO)C12OOC3(CCCC3)OC1CC(=O)c1ccccc12` (stereo not given): 39.17% and 37.43%.
The matching figures for `C=C(c1ccc(OCCO)c2ccccc12)C1COC2(OO1)C1CC3CC(C1)CC2C3` (stereo not given): 24.1% and 20.54%.
On to `C/C(=C/CO)C12OOC(C)(C)OC1CC(=O)c1ccccc12` (stereo not given), for which the values for the Activity in [1] and in [2] were 53.17% and 37.81%, respectively.
`C=C(c1ccc(O[Si](C)(C)C(C)(C)C)c2ccccc12)C1COC2(OO1)C1CC3CC(C1)CC2C3` (stereo not given): the Activity in assay [1] was 27.71%.
With `C/C(=C/CO)C12OOC3(CCCCC3)OC1CC(=O)c1ccccc12` (stereo not given), the Activity was found to be 52.78% in assay [1] and 51.63% in assay [2].
Regarding `C=C(c1ccc(OC(C)(C)CO)c2ccccc12)C1COC2(OO1)C1CC3CC(C1)CC2C3` (stereo not given), the Activity in assay [1] turned out to be 100%; in assay [2], 100%; in [8], 100%; in assay [4], 27.68%; in assay [5], 100%; in assay [6], 70.24%. Moreover, the outcome in [3] and in assay [9] was Active.
Turning to `C=C(c1ccc(O[Si](C)(C)C(C)(C)C)c2ccccc12)C1COC2(CCCCC2)OO1` (stereo not given), in assay [1], the Activity is reported as 45.56%.
